The text below walks through data of patent US10588889B2 (priority 2015, dated 2020).

In data set [1] the test system is opioid induced hyperalgesia. Nature of the data set: Human subject with morphine-induced hyperalgesia switched to compound (Example 3). It counts as in vivo. As to conditions: morphine stopped, compound administered.
The test system of data set [2] is nociceptive sensitization. In words: Subject with opioid-induced increased nociceptive sensitization switched to compound (Example 4). It counts as in vivo. As to conditions: subject switched from opioid to pharmaceutical composition of compound. The source says: A subject is identified as having increased nociceptive sensitization due to being administered an opioid for pain relief. The subject is switched from the opioid to a pharmaceutical composition comprising Compound 140 or Compound 265. The subject's nociceptive sensitization is decreased while maintaining the pain relief.

In data set [3] the test system is mouse model of opioid induced hyperalgesia. The settings on record: in vivo, sc.

With `COc1ccsc1CNCC[C@@]1(c2ccccn2)CCOC2(CCCC2)C1` [Compound 140], the “opioid induced hyperalgesia in human subject after stopping morphine” value in data set [1] is “treated and reduced”. The “nociceptive sensitization after switch from opioid” value in data set [2] is reported as “decreased”. On to `COc1ccc2c3c1O[C@H]1C(=O)CC[C@@]4(O)[C@@H](C2)N(C)CC[C@]314` [Oxycodone], for which, in data set [3], the “% non-responses to 10 applications of a 0.4 g von Frey filament (hyperalgesia induction)” value is on record as “decreased the % non-responses”.
